Some results are limits rather than exact numbers.

The term melting point denotes the temperature, or range, at which the solid turns liquid. `CCn1nc(-c2ccccc2)c(C(C)=O)c(Nc2cccc(Cl)c2)c1=O` gave a melting point of 189 to 191 °C.
`CN1C(=O)N2[C@H](c3cccc(O)c3)c3[nH]c4ccc(Cl)cc4c3C[C@@]2(C)C1=O` (racemic) came in with a melting point of 248 to 250 °C.
In turn, `COc1cc(Nc2c(C#N)cnc3cc(-c4cc5ccccc5o4)ccc23)c(Cl)cc1Cl` registered a melting point of 276 to 277 °C.
With `COC(=O)c1ccc(Oc2cc3c(cc2C(C)C)C(C)(C)CCC3(C)C)cc1` the figure was 115 to 116 °C; with `Clc1ccc2c(c1)C(c1ccccc1)=NCc1nccn1-2`, 146 to 148 °C.
In the case of `CC12C=CC(=O)C=C1C(N)CC1C2CCC2(C)C(=O)CCC12` (configuration not stated), the melting point lay in the range of 186 to 191 °C.
Regarding `COc1ccc(S(=O)(=O)C(C/C=C(\C)CCC=C(C)C)(Cc2ccc(OCCN3CCOCC3)cc2)C(=O)NO)cc1` (configuration not stated), the melting point stood at 61 °C.
On to `Cn1c(C(F)(F)F)c(Cl)c(=O)n(-c2ccc(Cl)c3nc(C(C)(C)C)oc23)c1=O`, for which the melting point lay within 83 to 86 °C.
The same measure for `CC(=O)c1ccc(S(=O)(=O)Nc2ccon2)cc1`: 165 to 166 °C; for `Cc1cccc2c(-c3ccc(Br)cc3)nccc12`: 126 to 128 °C.
For `COc1cc(Cc2cnc(NCCO)nc2N)cc(OC)c1OC`, the melting point was 146 °C.
`NS(=O)(=O)c1cccc(-c2cccc(-c3nc(-c4ccc(Cl)c(Cl)c4)cc(C(F)(F)F)n3)c2)c1` displayed a melting point of 241 °C.
Regarding `O=c1ccc(O)nn1-c1ccc(OC(F)(F)F)cc1`, the melting point worked out at 243 °C.
Take `NCCCCCC(=O)NC(CCCCN)C(=O)N(NC(=O)OCc1ccccc1)C(=O)OCc1ccccc1` (configuration not stated): the melting point was in the range of 167 to 168 °C.
Compound `CC(=O)OCCc1ccc(-c2ccc(=O)[nH]n2)cc1` returned a melting point of 186 °C.
`Oc1nsnc1-c1c(Cl)cccc1Cl` yielded a melting point of 194 to 195 °C.
For `CN1CCN(c2ccc(-c3cnc4c(c3)N(Cc3c(F)ccc(F)c3Cl)CCN4)cn2)CC1`, the melting point is 219 °C.
As to `Clc1cccc(Oc2ncccc2C2=NC(c3ccccc3)CO2)c1` (configuration not stated), the melting point was in the range of 78 to 80 °C.
With `O=P(O)(O)OP(=O)(O)O` the figure was 212 °C; with `COC(=O)c1ccc(COc2c(C)c(C)c3c(c2C)C(c2ccc(C(C)C)cc2)C(C)(C)O3)cc1` (configuration not stated), 108 to 110 °C.
Regarding `CCC(c1ccc(C(=O)OC)cc1)C(C)NCC(O)c1ccc(O)c(CO)c1` (configuration not stated), the melting point fell in the range of 73 to 75 °C.
`COc1ccc(C(=O)Nc2ccc3ccc(Cl)nc3n2)cn1` gave a melting point of 270 °C.
Turning to `C#Cc1ccc2c(c1)C(c1ccccn1)=NCc1c(C(=O)N(C)C)ncn1-2`, the melting point lay within 193 to 194 °C.
Consider `CC12CCC(C(=O)O)=CC1=CCC1C2CCC2(C)C(C(=O)c3ccc(O)cc3)CCC12` (configuration not stated), for which the melting point was determined as 295 °C.
For the compound `CC(=O)COc1cccc2ccc(OC(C)=O)nc12`, the melting point lay within 79 to 80 °C.
`O=C1NCCC1=Cc1ccc(C2=NCCO2)cc1` came in with a melting point of 258 to 262 °C.
Regarding `O=C1c2ccccc2C(=O)N1CCn1nnc(C(F)(F)F)n1`, the melting point fell in the range of 98 to 99.5 °C.
In the case of `N#Cc1cccc(OCc2ccccc2)c1[N+](=O)[O-]`, the melting point lay within 94 to 95 °C.
Compound `COc1ccc(-c2csc(Nc3cccc4ccccc34)n2)cc1OC` returned a melting point of 244 to 246 °C.
The compound `O=C(O)C1COc2ccc(Cl)c(Cl)c2O1` (configuration not stated) yielded a melting point of 144 to 148 °C.
In turn, `O=C(Nc1ccccc1)OCCc1ccc2c(c1)C(=O)c1ccccc1CO2` returned a melting point of 98 to 99 °C.
`CCCCc1ncc(Sc2ccccc2C(=O)O)n1Cc1ccc(C(=O)O)cc1` came in with a melting point of 260 to 262 °C.
Turning to `CC(C)SC1=C(C#N)C(c2ccccc2)(c2ccccc2)C(=O)N1`, the melting point turned out to be 160 °C.
As to `O=C(O)C1CCc2c(c3ccccc3n2C(=O)c2ccccc2)C1` (configuration not stated), the melting point was in the range of 188 to 190 °C.
`OC(c1c(Br)ccc2c1OCO2)c1cccc2cnccc12` (configuration not stated) showed a melting point of 173 to 175 °C.
The compound `CCOC(=O)CNc1nc2cccccc-2c1C#N` yielded a melting point of 186 to 188 °C.
With `O=C(Cn1c(-c2ccc(Cl)cc2)nc2cccnc21)NCC1CC1` the figure was 228 to 229 °C; with `O=C(O)Cn1c(=O)c(=O)n(O)c2ccc(Cl)cc21`, 280 to 282 °C; with `CC(C)CCC(C)(C#N)N=NC(C)(C#N)CCC(C)C` (configuration not stated), 56 to 58 °C.
With `C=Cc1cccc2c1-c1ccc3c(c1C(C1(C)CC=CCC1)O2)C(C)=CC(C)(C)N3` (configuration not stated) the figure was 198 to 201 °C; with `CCC(CC)C(NC(=O)c1ccc(Cl)cc1)NC(=C[N+](=O)[O-])Nc1cccnc1` (configuration not stated), 192 to 193 °C; with `CN1CCN(C(=O)CN2CCN(C(=O)c3cc(C(F)(F)F)cc(C(F)(F)F)c3)[C@H](Cc3c[nH]c4ccccc34)C2)CC1`, 105 to 108 °C.
In the case of `Cc1nc2c(N)nc3ccc(OCc4ccccc4)cc3c2n1CCCCNC(=O)Nc1ccccc1`, the melting point lay in the range of 202 to 204 °C.
For the compound `O=C(O)COc1cccc2c1Cc1sc(SCCC(c3ccccc3)c3ccccc3)nc1-2`, the melting point lay within 100 to 103 °C.
As for `CCCC=Cc1c(C(C)C)nc(C(C)C)c(CO)c1-c1cccc(OC)c1`, the melting point is 71 to 75 °C.
As for `C1=C(c2c[nH]c3ccccc23)CCN(CC2CCc3ccccc3O2)C1` (configuration not stated), the melting point lay within 171 to 173 °C.
With `Cc1c(SCCCSc2nc3ccccc3[nH]2)ccnc1CSc1nc2ccccc2[nH]1` the figure was 85 to 87 °C.
As for `CCCCCCCCCCCCCCCCCCc1ccc(S(=O)(=O)Cl)cc1`, the melting point lay within 43 to 44 °C.
For the compound `Cc1cccc(C)c1N1C(=O)CS/C1=N\C(=O)Nc1ccc(-c2ncn(-c3ccc(OC(F)(F)F)cc3)n2)cc1`, the melting point was 190 to 196 °C.
`Cc1ncsc1C(=O)Nc1cnc(-n2nc(C(F)(F)F)cc2C2CC2)nc1` showed a melting point of 148 to 152 °C.
The same measure for `Cc1cc(C)cc(S(=O)(=O)n2c(COC(C)(C)C(=O)O)cc3nc(Cl)ccc32)c1`: 154 °C; for `COC(=O)c1cc2ccc(Cl)cc2n1CC#N`: 177 to 178 °C.
`CCOC(=O)/C(=N\OCCN)c1csc(NC(c2ccccc2)(c2ccccc2)c2ccccc2)n1` registered a melting point of 126 to 144 °C.
`C=C(C)C(=O)c1cn2c(C)c(CC)c(SC)nc2n1` returned a melting point of 136 to 137 °C.
With `COc1ccc(-c2sc(NC(C)=O)nc2C)cc1S(N)(=O)=O` the figure was 342 °C; with `COc1ccc(C(NC(=O)C(C)c2ccccc2)c2cccc(Nc3c(N)c(=O)c3=O)c2)cc1` (configuration not stated), 206 to 209 °C; with `CN(CC1CC(c2ccc(F)cc2)=NO1)C1CCC(c2ccc3[nH]c(=O)oc3c2)CC1` (configuration not stated), 109 to 114 °C.
`Cc1cc(NC(=O)C2=C(O)c3ccc4ccccc4c3S(=O)(=O)N2C)no1` showed a melting point of 253 °C.
The same measure for `COc1ccc(CCc2ccncc2)c2c1OCC2C` (configuration not stated): 89 to 93 °C.
In turn, `CCN(C(=O)C1CC1)c1cccc(-c2ccc3nnc(C)n3n2)c1` gave a melting point of 149 to 151 °C.
With `Nc1ccc(O)c(C(=O)Nc2cccc3[nH]ccc23)c1` the figure was over 260 °C; with `O=C(O)c1ccc(CCCc2ccc(Br)cc2OCc2ccccc2)cc1`, 141 to 142 °C.

The values above are taken from a melting point compilation (Tetko et al.; mined from patent text by program, amines drawn as free bases though some values may be those of a salt).
